The values that follow come from ChEMBL document CHEMBL1201862, “PubChem BioAssay data set” (2004).

Calls of active or inactive are those of the source.

A short description of data set [1]: cells. In kind it is functional, cell-based.
The target in data set [2] is T1, Trace amine-associated receptor 1 (Homo sapiens, UniProt Q96RJ0).
T1 sequence (Q96RJ0 whole entry): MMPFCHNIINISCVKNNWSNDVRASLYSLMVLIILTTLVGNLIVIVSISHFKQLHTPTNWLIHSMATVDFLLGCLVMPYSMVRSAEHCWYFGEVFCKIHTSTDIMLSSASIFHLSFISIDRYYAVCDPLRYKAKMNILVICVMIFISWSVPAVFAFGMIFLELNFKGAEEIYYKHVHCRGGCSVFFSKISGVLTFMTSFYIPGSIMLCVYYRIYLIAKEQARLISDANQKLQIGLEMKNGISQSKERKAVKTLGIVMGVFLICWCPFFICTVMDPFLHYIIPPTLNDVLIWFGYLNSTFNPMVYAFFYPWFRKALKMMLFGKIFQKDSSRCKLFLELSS
In words: Fluorescence-based cell-based high throughput dose response assay to identify agonists of the human trace amine associated receptor 1 (TAAR1). The format is functional.

Data set [3] has as its target T1, Trace amine-associated receptor 1. In words: Counterscreen for agonists of the human trace amine associated receptor 1 (hTAAR1): Fluorescence-based cell-based high throughput dose response assay to identify hTAAR1 agonist that also desensitize TAAR1 receptor response. The format is functional.
A short description of data set [4]: cells. In kind it is functional, cell-based. This is another data set of the same source.
Data set [5] is described as follows: Vero cell cytotoxicity, dose response, cytotoxicity control for Vif-APOBEC3G degradation inhibitor project, Vero cells (AID 1117358). The format is functional. To be noted: Human immunodeficiency virus 1, Vero.
The subject of data set [6] is Escherichia coli. In words: microbe, parasite or virus in culture.
The subject of data set [7] is Escherichia coli. In words: microbe, parasite or virus in culture. The source holds these as a separate data set.
In data set [8] the target is T2, Short transient receptor potential channel 4 (Mus musculus, UniProt Q9QUQ5).
T2 sequence (Q9QUQ5 whole entry): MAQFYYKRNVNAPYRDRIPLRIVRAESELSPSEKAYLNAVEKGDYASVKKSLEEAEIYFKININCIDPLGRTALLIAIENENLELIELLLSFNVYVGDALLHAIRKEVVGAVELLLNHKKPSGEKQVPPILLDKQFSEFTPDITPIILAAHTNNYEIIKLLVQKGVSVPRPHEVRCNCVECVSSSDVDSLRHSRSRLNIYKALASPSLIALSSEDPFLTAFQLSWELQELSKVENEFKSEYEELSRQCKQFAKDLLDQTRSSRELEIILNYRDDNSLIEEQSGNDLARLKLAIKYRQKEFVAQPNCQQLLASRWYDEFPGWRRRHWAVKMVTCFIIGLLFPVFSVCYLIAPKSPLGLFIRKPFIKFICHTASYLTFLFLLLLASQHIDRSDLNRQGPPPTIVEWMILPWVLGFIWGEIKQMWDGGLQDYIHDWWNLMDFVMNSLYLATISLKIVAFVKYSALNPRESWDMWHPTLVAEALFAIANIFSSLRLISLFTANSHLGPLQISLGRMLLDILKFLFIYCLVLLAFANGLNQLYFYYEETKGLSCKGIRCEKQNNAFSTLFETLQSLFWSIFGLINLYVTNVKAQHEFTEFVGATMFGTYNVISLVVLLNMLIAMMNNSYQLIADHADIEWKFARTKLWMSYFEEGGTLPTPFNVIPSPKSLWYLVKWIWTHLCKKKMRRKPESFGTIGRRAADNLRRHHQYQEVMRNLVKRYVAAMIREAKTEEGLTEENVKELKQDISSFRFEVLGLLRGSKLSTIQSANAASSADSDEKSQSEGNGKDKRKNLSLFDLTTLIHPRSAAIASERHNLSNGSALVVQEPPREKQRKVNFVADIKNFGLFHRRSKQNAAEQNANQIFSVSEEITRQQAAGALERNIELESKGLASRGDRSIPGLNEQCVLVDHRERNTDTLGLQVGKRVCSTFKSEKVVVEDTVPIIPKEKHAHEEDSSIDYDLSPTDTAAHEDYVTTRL
In words: mouse TRPC4 channel activators, dose response, cell-based, HEK293 TRPC4/mu-opioid, Fluo-4 calcium (AID 434937). In kind it is functional.

Data set [9] deals with T3, Corticotropin-releasing factor receptor 2/Corticotropin-releasing factor-binding protein (Homo sapiens, UniProt P24387+Q13324).
T3 sequence (Q13324 whole entry): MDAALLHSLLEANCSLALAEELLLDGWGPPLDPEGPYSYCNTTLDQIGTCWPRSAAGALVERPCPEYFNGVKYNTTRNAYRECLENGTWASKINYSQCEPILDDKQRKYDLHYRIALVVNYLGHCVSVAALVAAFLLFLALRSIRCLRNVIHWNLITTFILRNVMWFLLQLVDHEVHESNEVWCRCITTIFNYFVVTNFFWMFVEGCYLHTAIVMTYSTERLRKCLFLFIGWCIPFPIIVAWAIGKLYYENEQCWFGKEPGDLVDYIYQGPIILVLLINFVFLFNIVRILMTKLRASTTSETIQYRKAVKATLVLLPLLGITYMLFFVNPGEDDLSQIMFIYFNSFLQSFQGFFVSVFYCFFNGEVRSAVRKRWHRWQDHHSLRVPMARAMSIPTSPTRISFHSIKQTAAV
T3 sequence (P24387 whole entry): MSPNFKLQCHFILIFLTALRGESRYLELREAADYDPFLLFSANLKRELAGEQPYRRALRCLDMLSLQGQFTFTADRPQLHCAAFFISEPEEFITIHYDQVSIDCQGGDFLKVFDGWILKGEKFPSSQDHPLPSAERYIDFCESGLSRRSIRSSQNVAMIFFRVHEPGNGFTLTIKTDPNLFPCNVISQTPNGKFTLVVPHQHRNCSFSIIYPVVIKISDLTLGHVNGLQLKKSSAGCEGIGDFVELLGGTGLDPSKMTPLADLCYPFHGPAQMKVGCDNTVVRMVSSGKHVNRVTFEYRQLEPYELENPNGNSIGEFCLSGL
In words: activators of CRF receptor 2 with binding protein – uHTS hits, confirmation (AID 602473). To be noted: read-out: EC50_Mean. The format is functional.

The target in a further data set is Large T antigen (Simian virus 40, UniProt P03070). In kind it is functional, Betapolyomavirus macacae.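 Note: Confirmatory-stage PubChem screen for compounds that inhibit SV40 T antigen.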
Data set [10] has as its target Induced myeloid leukemia cell differentiation protein Mcl-1 (Homo sapiens, UniProt Q07820). In kind it is functional.
The next data set concerns the target Genome polyprotein (dengue virus type 2, UniProt P29990). In words: Dengue-2 NS5 methyltransferase inhibitors, primary screen, biochemical, confirmation dose response (AID 588689). In kind it is functional.
The target in data set [11] is T4, Fatty acid synthase (Homo sapiens, UniProt P49327). In words: FAS thioesterase domain inhibitors, dose response, biochemical, endpoint fluorescence intensity, uHTS hits (AID 624327).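 Note: fluorescence from hydrolysis of an O-methyl fluorescein acyl ester substrate by the enzyme.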 In kind it is functional.
T4 sequence (P49327 whole entry, the tested form may be a part): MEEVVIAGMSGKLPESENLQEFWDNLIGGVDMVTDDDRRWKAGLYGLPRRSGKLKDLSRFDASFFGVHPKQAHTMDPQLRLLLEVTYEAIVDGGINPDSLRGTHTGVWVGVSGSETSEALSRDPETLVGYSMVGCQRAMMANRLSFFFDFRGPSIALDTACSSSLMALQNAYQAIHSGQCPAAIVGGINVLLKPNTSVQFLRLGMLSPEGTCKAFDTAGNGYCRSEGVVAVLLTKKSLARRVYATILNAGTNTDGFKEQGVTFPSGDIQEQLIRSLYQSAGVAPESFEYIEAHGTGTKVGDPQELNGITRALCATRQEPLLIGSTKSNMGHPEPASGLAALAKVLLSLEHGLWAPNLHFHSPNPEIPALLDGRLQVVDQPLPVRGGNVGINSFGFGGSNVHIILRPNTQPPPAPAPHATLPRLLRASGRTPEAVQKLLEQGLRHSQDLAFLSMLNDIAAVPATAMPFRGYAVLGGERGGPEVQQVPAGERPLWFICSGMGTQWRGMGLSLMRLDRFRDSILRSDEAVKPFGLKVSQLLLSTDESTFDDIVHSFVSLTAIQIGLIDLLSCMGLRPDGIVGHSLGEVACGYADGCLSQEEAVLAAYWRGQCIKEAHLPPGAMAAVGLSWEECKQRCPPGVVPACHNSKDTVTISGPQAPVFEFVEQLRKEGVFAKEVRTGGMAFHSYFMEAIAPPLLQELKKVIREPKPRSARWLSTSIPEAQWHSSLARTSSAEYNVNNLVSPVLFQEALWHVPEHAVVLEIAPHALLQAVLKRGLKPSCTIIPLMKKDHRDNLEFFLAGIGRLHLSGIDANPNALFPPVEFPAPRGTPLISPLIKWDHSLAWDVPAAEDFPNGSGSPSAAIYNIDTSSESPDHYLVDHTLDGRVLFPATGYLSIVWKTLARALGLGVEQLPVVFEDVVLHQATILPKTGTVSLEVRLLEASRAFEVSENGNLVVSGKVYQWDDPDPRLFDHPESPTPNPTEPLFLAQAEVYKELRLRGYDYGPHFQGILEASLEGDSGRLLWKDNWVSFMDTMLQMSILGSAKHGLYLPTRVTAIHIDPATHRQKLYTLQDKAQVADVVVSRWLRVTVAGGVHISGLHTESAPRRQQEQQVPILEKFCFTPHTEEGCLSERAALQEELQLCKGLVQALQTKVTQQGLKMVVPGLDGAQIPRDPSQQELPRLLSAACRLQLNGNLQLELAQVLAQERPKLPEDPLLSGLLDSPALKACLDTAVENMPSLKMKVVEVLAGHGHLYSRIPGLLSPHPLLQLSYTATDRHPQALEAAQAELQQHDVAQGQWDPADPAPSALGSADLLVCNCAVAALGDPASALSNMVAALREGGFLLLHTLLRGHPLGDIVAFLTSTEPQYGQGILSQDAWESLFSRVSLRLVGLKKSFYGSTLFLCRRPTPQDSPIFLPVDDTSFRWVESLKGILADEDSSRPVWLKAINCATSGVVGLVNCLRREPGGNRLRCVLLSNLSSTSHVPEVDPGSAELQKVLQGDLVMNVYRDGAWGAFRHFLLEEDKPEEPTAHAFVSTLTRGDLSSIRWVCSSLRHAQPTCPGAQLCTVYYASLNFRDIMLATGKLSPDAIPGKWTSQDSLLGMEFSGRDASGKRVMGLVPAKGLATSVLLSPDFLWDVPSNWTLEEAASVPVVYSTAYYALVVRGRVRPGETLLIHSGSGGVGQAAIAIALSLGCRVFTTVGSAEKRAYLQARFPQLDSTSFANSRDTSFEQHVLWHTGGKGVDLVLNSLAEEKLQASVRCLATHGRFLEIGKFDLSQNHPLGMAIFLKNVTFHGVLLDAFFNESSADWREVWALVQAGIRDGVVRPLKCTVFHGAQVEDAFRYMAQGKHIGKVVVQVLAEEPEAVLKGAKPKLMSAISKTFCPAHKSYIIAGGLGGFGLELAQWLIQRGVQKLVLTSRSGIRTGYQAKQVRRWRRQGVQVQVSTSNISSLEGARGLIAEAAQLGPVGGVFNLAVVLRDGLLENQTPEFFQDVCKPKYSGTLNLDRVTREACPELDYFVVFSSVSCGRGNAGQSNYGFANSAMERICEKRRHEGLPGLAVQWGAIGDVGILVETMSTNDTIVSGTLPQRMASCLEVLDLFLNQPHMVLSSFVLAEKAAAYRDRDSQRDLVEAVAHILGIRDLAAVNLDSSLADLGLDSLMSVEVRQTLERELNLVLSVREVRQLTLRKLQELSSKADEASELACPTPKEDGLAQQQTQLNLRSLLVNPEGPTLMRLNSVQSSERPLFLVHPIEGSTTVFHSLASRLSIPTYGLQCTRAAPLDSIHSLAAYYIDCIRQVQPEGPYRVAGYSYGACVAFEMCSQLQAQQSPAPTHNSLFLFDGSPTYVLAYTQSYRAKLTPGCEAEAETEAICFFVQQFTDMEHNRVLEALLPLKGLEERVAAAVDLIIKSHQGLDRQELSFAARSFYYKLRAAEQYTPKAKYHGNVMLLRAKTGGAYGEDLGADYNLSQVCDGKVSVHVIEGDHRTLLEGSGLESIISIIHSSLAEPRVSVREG
The target in data set [12] is T4, Fatty acid synthase. In words: FAS thioesterase domain inhibitors, dose response, biochemical, kinetic fluorescence intensity (AID 624326).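 Note: rate of fluorescence rise from hydrolysis of a fluorogenic O-methyl fluorescein ester substrate.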 The format is functional.
The nature of data set [13]: insulin promoter down-regulators in MIN6 cells, imaging, high-content screening, mouse beta cells (AID 1628). In kind it is functional.
Data set [14] in a line: cytotoxicity in MIN6 insulinoma cells, dose response, cytotoxicity control, cell-based, mouse insulinoma (AID 2122).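 Note: confirmatory high-throughput counterscreen run to flag cytotoxic compounds; mouse MIN-6 beta cells carrying an insulin promoter eGFP reporter.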 The format is functional.
The target in a further data set is Cytochrome P450 2C19 (Homo sapiens, UniProt P33261). In words: Cytochrome panel assay with activity outcomes. Panel member name: p450-cyp2c19 Compounds with AC50 equal or less than 10 uM are considered active. In kind it is functional.
Sequence of Cytochrome P450 2C19 (P33261 whole entry): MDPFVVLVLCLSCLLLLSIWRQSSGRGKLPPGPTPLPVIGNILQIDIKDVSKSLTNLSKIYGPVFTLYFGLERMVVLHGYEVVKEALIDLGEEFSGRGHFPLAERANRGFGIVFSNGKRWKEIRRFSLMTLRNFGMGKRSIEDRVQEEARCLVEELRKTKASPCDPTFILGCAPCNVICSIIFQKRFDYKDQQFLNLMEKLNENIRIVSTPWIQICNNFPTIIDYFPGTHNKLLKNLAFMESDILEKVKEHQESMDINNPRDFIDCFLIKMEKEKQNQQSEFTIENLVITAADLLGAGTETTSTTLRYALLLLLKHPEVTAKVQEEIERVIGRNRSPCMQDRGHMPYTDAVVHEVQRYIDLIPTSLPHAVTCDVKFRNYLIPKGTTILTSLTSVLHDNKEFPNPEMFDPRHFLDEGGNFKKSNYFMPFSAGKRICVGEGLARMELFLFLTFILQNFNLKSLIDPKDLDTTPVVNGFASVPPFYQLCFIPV
The target of another data set is T5, Cytochrome P450 1A2 (Homo sapiens, UniProt P05177).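 Note: PubChem cytochrome P450 panel assay, CYP1A2 panel member.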
T5 sequence (P05177 whole entry): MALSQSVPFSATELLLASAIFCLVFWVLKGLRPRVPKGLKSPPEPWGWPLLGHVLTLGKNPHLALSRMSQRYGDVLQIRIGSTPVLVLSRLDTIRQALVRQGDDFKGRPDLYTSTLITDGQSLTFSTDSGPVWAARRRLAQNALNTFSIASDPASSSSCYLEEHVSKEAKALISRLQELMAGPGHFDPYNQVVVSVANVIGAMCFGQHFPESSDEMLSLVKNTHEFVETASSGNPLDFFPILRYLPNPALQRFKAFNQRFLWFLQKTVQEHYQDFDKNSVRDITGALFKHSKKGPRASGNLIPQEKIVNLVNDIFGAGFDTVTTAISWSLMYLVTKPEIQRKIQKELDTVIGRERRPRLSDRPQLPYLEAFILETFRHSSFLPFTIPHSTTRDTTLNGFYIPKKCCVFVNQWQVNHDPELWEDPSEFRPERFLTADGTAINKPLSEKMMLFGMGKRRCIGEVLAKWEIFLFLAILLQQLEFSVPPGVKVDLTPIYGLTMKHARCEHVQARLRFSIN

The target of a further data set is Cytochrome P450 3A4 (Homo sapiens, UniProt P08684).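 Note: CYP3A4 tested as one member of a cytochrome P450 panel screen.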
The next data set deals with Cytochrome P450 2C9 (Homo sapiens, UniProt P11712).
Sequence of Cytochrome P450 2C9 (P11712 whole entry): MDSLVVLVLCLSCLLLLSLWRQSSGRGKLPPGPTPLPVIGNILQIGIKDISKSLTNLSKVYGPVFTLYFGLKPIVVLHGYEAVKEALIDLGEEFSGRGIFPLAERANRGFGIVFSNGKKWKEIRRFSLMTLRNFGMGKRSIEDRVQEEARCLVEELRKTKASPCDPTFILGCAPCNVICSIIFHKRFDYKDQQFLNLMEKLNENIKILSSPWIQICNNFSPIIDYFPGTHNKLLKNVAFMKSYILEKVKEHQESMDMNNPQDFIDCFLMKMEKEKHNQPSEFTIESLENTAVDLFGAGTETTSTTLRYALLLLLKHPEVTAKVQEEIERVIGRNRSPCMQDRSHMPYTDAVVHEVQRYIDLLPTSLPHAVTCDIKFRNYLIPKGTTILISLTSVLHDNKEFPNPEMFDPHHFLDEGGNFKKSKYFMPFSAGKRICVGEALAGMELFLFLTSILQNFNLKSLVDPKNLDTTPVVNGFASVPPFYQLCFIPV
The nature of data set [15]: NIH-3T3 fibroblast cytotoxicity, dose response, cytotoxicity control, cell-based, fluorescence, Alamar Blue, secondary assay (AID 2327).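 Note: NIH-3T3 mouse fibroblasts cultured with fluconazole at 8 µg/mL.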 In kind it is functional.
The target of data set [16] is T6, Heat shock factor protein 1 (Mus musculus, UniProt P38532).
T6 sequence (P38532 whole entry): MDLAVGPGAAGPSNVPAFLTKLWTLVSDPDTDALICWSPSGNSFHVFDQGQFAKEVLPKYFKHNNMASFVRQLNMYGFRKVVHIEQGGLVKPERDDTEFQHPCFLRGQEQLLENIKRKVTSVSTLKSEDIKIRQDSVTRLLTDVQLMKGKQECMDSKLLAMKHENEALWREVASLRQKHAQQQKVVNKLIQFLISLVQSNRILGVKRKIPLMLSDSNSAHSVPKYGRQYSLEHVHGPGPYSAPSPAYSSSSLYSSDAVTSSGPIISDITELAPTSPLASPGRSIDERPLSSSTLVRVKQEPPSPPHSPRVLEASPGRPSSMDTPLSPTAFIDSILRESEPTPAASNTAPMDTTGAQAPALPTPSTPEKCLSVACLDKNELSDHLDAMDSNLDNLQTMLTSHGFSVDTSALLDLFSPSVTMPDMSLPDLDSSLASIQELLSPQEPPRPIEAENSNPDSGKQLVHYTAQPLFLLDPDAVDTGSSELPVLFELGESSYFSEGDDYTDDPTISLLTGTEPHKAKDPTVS
In words: HSF1 potentiators in luciferase reporter cells, confirmation, cell-based, NIH3T3, luminescence, dose retest (AID 435004).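 Note: stress induced by proteasome inhibitor MG132 added 30 min after compound; luciferase reporter driven by HSF1 response element in NIH3T3 cells; actives raise luminescence as potentiators of the MG132 stress response.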 In kind it is functional.

Sequence of Induced myeloid leukemia cell differentiation protein Mcl-1 (Q07820 whole entry): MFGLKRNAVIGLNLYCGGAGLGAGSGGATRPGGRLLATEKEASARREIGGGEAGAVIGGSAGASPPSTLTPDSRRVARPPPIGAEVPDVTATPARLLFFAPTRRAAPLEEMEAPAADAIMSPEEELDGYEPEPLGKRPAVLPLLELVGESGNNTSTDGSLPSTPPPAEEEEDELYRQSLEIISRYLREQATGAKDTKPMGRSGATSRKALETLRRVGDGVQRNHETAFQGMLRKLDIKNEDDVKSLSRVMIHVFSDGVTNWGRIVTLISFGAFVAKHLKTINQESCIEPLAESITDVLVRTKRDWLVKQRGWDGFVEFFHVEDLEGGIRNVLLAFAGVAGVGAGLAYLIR
Sequence of Genome polyprotein (P29990 2492-3391 limits assumed): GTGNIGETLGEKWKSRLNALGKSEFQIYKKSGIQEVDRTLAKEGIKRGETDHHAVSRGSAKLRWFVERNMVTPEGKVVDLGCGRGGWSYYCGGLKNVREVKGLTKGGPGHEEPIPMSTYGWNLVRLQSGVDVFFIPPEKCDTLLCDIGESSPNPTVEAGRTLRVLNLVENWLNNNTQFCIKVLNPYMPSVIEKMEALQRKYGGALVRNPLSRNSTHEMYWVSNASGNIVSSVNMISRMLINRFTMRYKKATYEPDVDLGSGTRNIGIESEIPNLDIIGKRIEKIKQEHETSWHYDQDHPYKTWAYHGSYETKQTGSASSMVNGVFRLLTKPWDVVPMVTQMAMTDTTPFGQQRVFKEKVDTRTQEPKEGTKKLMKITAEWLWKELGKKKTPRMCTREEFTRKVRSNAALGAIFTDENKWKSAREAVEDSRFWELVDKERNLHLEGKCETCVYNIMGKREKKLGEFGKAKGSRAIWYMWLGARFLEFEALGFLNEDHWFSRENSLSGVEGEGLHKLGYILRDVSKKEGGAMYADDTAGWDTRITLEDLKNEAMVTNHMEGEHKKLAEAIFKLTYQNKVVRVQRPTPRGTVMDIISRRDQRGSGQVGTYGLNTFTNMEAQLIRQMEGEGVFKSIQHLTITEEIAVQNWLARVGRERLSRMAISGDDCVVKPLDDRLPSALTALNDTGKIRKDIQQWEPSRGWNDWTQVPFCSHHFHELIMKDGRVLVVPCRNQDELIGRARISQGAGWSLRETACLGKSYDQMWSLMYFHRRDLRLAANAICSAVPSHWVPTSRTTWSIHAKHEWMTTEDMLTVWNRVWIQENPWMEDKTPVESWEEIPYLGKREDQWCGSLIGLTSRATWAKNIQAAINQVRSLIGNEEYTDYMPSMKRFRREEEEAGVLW

`COc1cc(CNCCc2ccccc2F)ccc1OCc1ccc(Cl)nc1`: the IC50 is 28.7 µM (inactive) in the data set “cells [1]” and 9.47 µM (active) in data set [3]. The EC50 in data set [2] was 2.83 µM (active); in the data set “cells [4]”, 11.1 µM (inactive). Moreover, in data set [5], the CC50 is > 40 µM (active).
As to `COc1ccc(S(=O)(=O)N2CCCC2)c(Cl)c1Cl`, the AC50 in the data set on Escherichia coli [6] is 71.3 µM (active); with Escherichia coli [7], 37.7 µM (active).
In the case of `CCN1C(=O)c2cccc3c(S(=O)(=O)Nc4ccccc4OC)ccc1c23`, the EC50 in data set [8] was 5.96 µM (active); in [9] it was 7.94 µM (active).
`Cc1nc2ccc(NC(=O)c3cc([N+](=O)[O-])cc([N+](=O)[O-])c3Cl)cc2s1`: the 50% inhibitory concentration (IC50) was 59.9 µM (active) at Large T antigen; 5.15 µM (active) in data set [10]; 59.6 µM (active) at Genome polyprotein; 2.23 µM (active) at Fatty acid synthase [11]; 2.54 µM (active) at Fatty acid synthase [12].
As to `Clc1ccc(CN2CCN(c3ncnc4scc(-c5cccs5)c34)CC2)cc1`, the IC50 in [13] is 2.39 µM (active); in data set [14], 2.12 µM (active).
For the compound `C[C@H]1c2cccc(O)c2C(=O)C2=C(O)C3(O)C(O)=C(C(N)=O)C(=O)[C@@H](N(C)C)[C@@H]3[C@@H](O)[C@@H]21` (some centres undefined), the AC50 was 30 µM (active) in the data set with Escherichia coli [6] and 1.13 µM (active) in the data set with Escherichia coli [7].
Regarding `Cn1cccc1C(=O)N1CCC2(CC1)CN(c1cccc(-c3ccccc3)c1)C2`, the AC50 at Cytochrome P450 2C19 (read-out: AC50) is 39.8 µM (inconclusive); on Cytochrome P450 1A2 it was 25.1 µM (inconclusive); on Cytochrome P450 3A4, “inconclusive”; at Cytochrome P450 2C9, “inconclusive”.
Consider `Cc1cc(C)n(-c2ccc(NC(=O)C3CCN(Cc4ccccn4)CC3)cc2)n1`, for which the half-maximal activity concentration (AC50) with Escherichia coli [6] was 39.4 µM (active); with Escherichia coli [7] it was 51.6 µM (active).
On to `O=C(OCCCN1CCCCC1)c1ccc(O)cc1`, for which the half-maximal activity concentration (AC50) result on Cytochrome P450 2C19 and at Cytochrome P450 2C9 was “inconclusive” in each case.
`C[n+]1c(-c2ccccc2)cc(CCCCc2cc(-c3ccccc3)[n+](C)c(-c3ccccc3)c2)cc1-c1ccccc1.[O-][Cl+3]([O-])([O-])[O-].[O-][Cl+3]([O-])([O-])[O-]`: the EC50 in data set [15] is > 160 µM (inactive). Moreover, the IC50 in [13] was 2.72 µM (active); in [14], 4.7 µM (active).
Regarding `Cc1ccc([N+](=O)[O-])cc1/N=N/c1c(-c2ccc([N+](=O)[O-])cc2)[nH]n(C(N)=S)c1=O`, the concentration for half-maximal inhibition (IC50) in [10] was 1.18 µM (active). The EC50 in [16] was > 260 µM (inactive).
As to `O=C(N/N=C/c1cccc(C(F)(F)F)c1)C1CCN(c2ncc(C(F)(F)F)cc2Cl)CC1`, the half-maximal activity concentration (AC50) result at Cytochrome P450 2C19 and on Cytochrome P450 2C9 was “inconclusive” in each case.
As for `CO[C@H]1/C=C/O[C@@]2(C)Oc3c(C)c(O)c4c(O)c(c(/C=N/N5CCN(C)CC5)c(O)c4c3C2=O)NC(=O)/C(C)=C\C=C\[C@H](C)[C@H](O)[C@@H](C)[C@@H](O)[C@@H](C)[C@H](OC(C)=O)[C@@H]1C` [RIFAMPIN], the AC50 in the data set with Escherichia coli [7] is 32.3 µM (active).
